Activity calls are given as the source filed them. The calls are words filed in the database; no cut-off is given here.
How the values were obtained:
HBEC3-KT [1] = experiment: Antiinflammatory activity in human HBEC3-KT cells assessed as fold increase in STC1 expression at 10 uM measured after 24 hrs by ELISA relative to control; assay type: functional
Mus musculus [2] = experiment: Effect on MIP1alpha level in dust-mite-induced BALB/c mouse model of airway inflammation assessed as greater than 2 fold induction at 6 mg/kg, sc administered for 2 weeks and measured 24 hrs post-HDM challenge by MSD multiplex assay; assay type: functional, organism-based
Mus musculus [3] = experiment: Effect on MIP2 level in dust-mite-induced BALB/c mouse model of airway inflammation assessed as greater than 2 fold induction at 6 mg/kg, sc administered for 2 weeks and measured 24 hrs post-HDM challenge by MSD multiplex assay; assay type: functional, organism-based
Mus musculus [4] = experiment: Effect on IL-21 level in dust-mite-induced BALB/c mouse model of airway inflammation assessed as greater than 2 fold induction at 6 mg/kg, sc administered for 2 weeks and measured 24 hrs post-HDM challenge by MSD multiplex assay; assay type: functional, organism-based
Mus musculus [5] = experiment: (§1) Antiinflammatory activity in house dust-mite-induced BALB/c mouse model of methacholine-induced airway hyperreactivity assessed as reduction in methacholine-induced newtonian resistance at 6 mg/kg , ip administered for 2 weeks after methacholine-stimulation at 12 mg/ml measured 24 hrs post-HDM challenge; assay type: functional, organism-based
Mus musculus [6] = experiment: Effect on MIP3alpha level in dust-mite-induced BALB/c mouse model of airway inflammation assessed as greater than 2 fold induction at 6 mg/kg, sc administered for 2 weeks and measured 24 hrs post-HDM challenge by MSD multiplex assay; assay type: functional, organism-based
Mus musculus [7] = experiment: Effect on IL-15 level in dust-mite-induced BALB/c mouse model of airway inflammation assessed as greater than 2 fold induction at 6 mg/kg, sc administered for 2 weeks and measured 24 hrs post-HDM challenge by MSD multiplex assay; assay type: functional, organism-based
HBEC3-KT [8] = experiment: Cytotoxicity against human HBEC3-KT incubated for 24 hrs by LDH assay; assay type: functional
HBEC3-KT [9] = experiment: Antiinflammatory activity in human HBEC3-KT cells assessed as fold increase in IL-1RA expression at 10 uM measured after 24 hrs by ELISA relative to control; assay type: functional
Mus musculus [10] = experiment: Effect on KC 10 level in dust-mite-induced BALB/c mouse model of airway inflammation assessed as greater than 2 fold induction at 6 mg/kg, sc administered for 2 weeks and measured 24 hrs post-HDM challenge by MSD multiplex assay; assay type: functional, organism-based
Mus musculus [11] = experiment: Antiinflammatory activity in house dust-mite-induced BALB/c mouse model of airway inflammation assessed as suppression of total leukocyte count in BALF at 6 mg/kg, sc administered for 2 weeks and measured 24 hrs post-HDM challenge by Wright-Giemsa staining based microscopy; assay type: functional
Mus musculus [12] = experiment: Antiinflammatory activity in house dust-mite-induced BALB/c mouse model of airway inflammation assessed as suppression of IL-33 abundance in lung tissue lysate at 6 mg/kg, sc administered for 2 weeks and measured 24 hrs post-HDM challenge by ELISA; assay type: functional
Mus musculus [13] = experiment: Effect on IL-22 level in dust-mite-induced BALB/c mouse model of airway inflammation assessed as greater than 2 fold induction at 6 mg/kg, sc administered for 2 weeks and measured 24 hrs post-HDM challenge by MSD multiplex assay; assay type: functional, organism-based
Mus musculus [14] = experiment: Effect on MCP1 level in dust-mite-induced BALB/c mouse model of airway inflammation assessed as greater than 2 fold induction at 6 mg/kg, sc administered for 2 weeks and measured 24 hrs post-HDM challenge by MSD multiplex assay; assay type: functional, organism-based
Mus musculus [15] = experiment: Effect on IL-1beta level in dust-mite-induced BALB/c mouse model of airway inflammation assessed as greater than 2 fold induction at 6 mg/kg, sc administered for 2 weeks and measured 24 hrs post-HDM challenge by MSD multiplex assay; assay type: functional, organism-based
Mus musculus [16] = experiment: Effect on IL-17F level in dust-mite-induced BALB/c mouse model of airway inflammation assessed as greater than 2 fold induction at 6 mg/kg, sc administered for 2 weeks and measured 24 hrs post-HDM challenge by MSD multiplex assay; assay type: functional, organism-based
Mus musculus [17] = experiment: Effect on IP10 level in dust-mite-induced BALB/c mouse model of airway inflammation assessed as greater than 2 fold induction at 6 mg/kg, sc administered for 2 weeks and measured 24 hrs post-HDM challenge by MSD multiplex assay; assay type: functional, organism-based
Mus musculus [18] = experiment: Effect on IL-23 level in dust-mite-induced BALB/c mouse model of airway inflammation assessed as greater than 2 fold induction at 6 mg/kg, sc administered for 2 weeks and measured 24 hrs post-HDM challenge by MSD multiplex assay; assay type: functional, organism-based
Mus musculus [19] = experiment: Effect on IL-17C level in dust-mite-induced BALB/c mouse model of airway inflammation assessed as greater than 2 fold induction at 6 mg/kg, sc administered for 2 weeks and measured 24 hrs post-HDM challenge by MSD multiplex assay; assay type: functional, organism-based
Mus musculus [20] = experiment: Effect on IL-30 level in dust-mite-induced BALB/c mouse model of airway inflammation assessed as greater than 2 fold induction at 6 mg/kg, sc administered for 2 weeks and measured 24 hrs post-HDM challenge by MSD multiplex assay; assay type: functional, organism-based
Mus musculus [21] = experiment: Antiinflammatory activity in house dust-mite-induced BALB/c mouse model of airway inflammation assessed as suppression of total neutrophil count in BALF at 6 mg/kg, sc administered for 2 weeks and measured 24 hrs post-HDM challenge by Wright-Giemsa staining based microscopy; assay type: functional
Mus musculus [22] = experiment: Antiinflammatory activity in house dust-mite-induced BALB/c mouse model of methacholine-induced airway hyperreactivity assessed as reduction in methacholine-induced tissue elastance at 6 mg/kg , ip administered for 2 weeks after methacholine-stimulation at 12 mg/ml measured 24 hrs post-HDM challenge; assay type: functional, organism-based
Mus musculus [23] = experiment: Effect on IFNgamma level in dust-mite-induced BALB/c mouse model of airway inflammation assessed as greater than 2 fold induction at 6 mg/kg, sc administered for 2 weeks and measured 24 hrs post-HDM challenge by MSD multiplex assay; assay type: functional, organism-based
Mus musculus [24] = experiment: Effect on TNF 1 level in dust-mite-induced BALB/c mouse model of airway inflammation assessed as greater than 2 fold induction at 6 mg/kg, sc administered for 2 weeks and measured 24 hrs post-HDM challenge by MSD multiplex assay; assay type: functional, organism-based
Mus musculus [25] = experiment: Antiinflammatory activity in house dust-mite-induced BALB/c mouse model of airway inflammation assessed as suppression of total eosinophil count in BALF at 6 mg/kg, sc administered for 2 weeks and measured 24 hrs post-HDM challenge by Wright-Giemsa staining based microscopy; assay type: functional
Mus musculus [26] = experiment: Effect on IL-25 level in dust-mite-induced BALB/c mouse model of airway inflammation assessed as greater than 2 fold induction at 6 mg/kg, sc administered for 2 weeks and measured 24 hrs post-HDM challenge by MSD multiplex assay; assay type: functional, organism-based
HBEC3-KT [27] = experiment: Antiinflammatory activity in human HBEC3-KT cells assessed as effect on MCP1 expression measured after 24 hrs by ELISA relative to control; assay type: functional, cell-based
HBEC3-KT [28] = experiment: Antiinflammatory activity in INFgamma-induced MCP1 expressed in human HBEC3-KT cells assessed as fold change measured after 24 hrs by ELISA relative to control; assay type: functional
Mus musculus [29] = experiment: as §1, with “50” for “12”; assay type: functional
Mus musculus [30] = experiment: Antiinflammatory activity in house dust-mite-induced BALB/c mouse model of methacholine-induced airway hyperreactivity assessed as reduction in methacholine-induced tissue elastance at 6 mg/kg , ip administered for 2 weeks after methacholine-stimulation at 50 mg/ml measured 24 hrs post-HDM challenge; assay type: functional
Mus musculus [31] = experiment: Effect on IL-5 level in dust-mite-induced BALB/c mouse model of airway inflammation assessed as greater than 2 fold induction at 6 mg/kg, sc administered for 2 weeks and measured 24 hrs post-HDM challenge by MSD multiplex assay; assay type: functional, organism-based
Mus musculus [32] = experiment: Effect on IL-6 level in dust-mite-induced BALB/c mouse model of airway inflammation assessed as greater than 2 fold induction at 6 mg/kg, sc administered for 2 weeks and measured 24 hrs post-HDM challenge by MSD multiplex assay; assay type: functional, organism-based
Mus musculus [33] = experiment: Antiinflammatory activity in house dust-mite-induced BALB/c mouse model of methacholine-induced airway hyperreactivity assessed as reduction in methacholine-induced tissue damping at 6 mg/kg , ip administered for 2 weeks after methacholine-stimulation at 12 mg/ml measured 24 hrs post-HDM challenge; assay type: functional, organism-based
Mus musculus [34] = experiment: Antiinflammatory activity in house dust-mite-induced BALB/c mouse model of methacholine-induced airway hyperreactivity assessed as reduction in methacholine-induced tissue damping at 6 mg/kg , ip administered for 2 weeks after methacholine-stimulation at 50 mg/ml measured 24 hrs post-HDM challenge; assay type: functional
HBEC3-KT [35] = experiment: Immunomodulatory activity in human HBEC3-KT cells assessed as suppression of INFgamma-induced IL-33 at 10 uM preincubated for 30 mins followed by INFgamma stimulation and measured after 24 hrs by Western blot analysis; assay type: functional; settings: 0.5 h
Mus musculus [36] = experiment: Effect on IL-17A level in dust-mite-induced BALB/c mouse model of airway inflammation assessed as greater than 2 fold induction at 6 mg/kg, sc administered for 2 weeks and measured 24 hrs post-HDM challenge by MSD multiplex assay; assay type: functional, organism-based
Mus musculus [37] = experiment: Effect on IL-10 level in dust-mite-induced BALB/c mouse model of airway inflammation assessed as greater than 2 fold induction at 6 mg/kg, sc administered for 2 weeks and measured 24 hrs post-HDM challenge by MSD multiplex assay; assay type: functional, organism-based
Mus musculus [38] = experiment: Effect on IL-12p70 level in dust-mite-induced BALB/c mouse model of airway inflammation assessed as greater than 2 fold induction at 6 mg/kg, sc administered for 2 weeks and measured 24 hrs post-HDM challenge by MSD multiplex assay; assay type: functional, organism-based
[39] = Retention time of the compound by HPLC analysis; assay type: physicochemical
Mus musculus [40] = experiment: Effect on IL-9 level in dust-mite-induced BALB/c mouse model of airway inflammation assessed as greater than 2 fold induction at 6 mg/kg, sc administered for 2 weeks and measured 24 hrs post-HDM challenge by MSD multiplex assay; assay type: functional, organism-based
Mus musculus [41] = experiment: Effect on IL-17AF level in dust-mite-induced BALB/c mouse model of airway inflammation assessed as greater than 2 fold induction at 6 mg/kg, sc administered for 2 weeks and measured 24 hrs post-HDM challenge by MSD multiplex assay; assay type: functional, organism-based
Mus musculus [42] = experiment: Effect on IL-31 level in dust-mite-induced BALB/c mouse model of airway inflammation assessed as greater than 2 fold induction at 6 mg/kg, sc administered for 2 weeks and measured 24 hrs post-HDM challenge by MSD multiplex assay; assay type: functional, organism-based
Mus musculus [43] = experiment: Effect on IL-2 level in dust-mite-induced BALB/c mouse model of airway inflammation assessed as greater than 2 fold induction at 6 mg/kg, sc administered for 2 weeks and measured 24 hrs post-HDM challenge by MSD multiplex assay; assay type: functional, organism-based
[44] = Stability of the compound in human HBEC3-KT cells assessed as compound degradation ay 10 uM measured after 16 hrs by FRET assay relative to control; assay type: functional
Mus musculus [45] = experiment: Effect on IL-4 level in dust-mite-induced BALB/c mouse model of airway inflammation assessed as greater than 2 fold induction at 6 mg/kg, sc administered for 2 weeks and measured 24 hrs post-HDM challenge by MSD multiplex assay; assay type: functional, organism-based

H-VQRWLIVWRIRK-OH
fold change (FC) (HBEC3-KT [1]): 4 | Activity (Mus musculus [2]): inactive | Activity (Mus musculus [3]): inactive | Activity (Mus musculus [4]): inactive | Activity (Mus musculus [5]): Active | Activity (Mus musculus [6]): inactive | Activity (Mus musculus [7]): inactive | Activity (HBEC3-KT [8]): <=15% | fold change (FC) (HBEC3-KT [9]): 2.6 | Activity (Mus musculus [10]): inactive | Activity (Mus musculus [11]): 66% | Activity (Mus musculus [12]): >40% | Activity (Mus musculus [13]): inactive | Activity (Mus musculus [14]): inactive | Activity (Mus musculus [15]): inactive | Activity (Mus musculus [16]): inactive | Activity (Mus musculus [17]): inactive | Activity (Mus musculus [18]): inactive | Activity (Mus musculus [19]): inactive | Activity (Mus musculus [20]): inactive | Activity (Mus musculus [21]): 60% | Activity (Mus musculus [22]): Active | Activity (Mus musculus [23]): inactive | Activity (Mus musculus [24]): inactive | Activity (Mus musculus [25]): 63% | Activity (Mus musculus [26]): inactive | Activity (HBEC3-KT [27]): inactive | fold change (FC) (HBEC3-KT [28]): 3.8 | Activity (Mus musculus [29]): Active | Activity (Mus musculus [30]): Active | Activity (Mus musculus [31]): inactive | Activity (Mus musculus [32]): inactive | Activity (Mus musculus [33]): Active | Activity (Mus musculus [34]): Active | Activity (HBEC3-KT [35]): 85% | Activity (Mus musculus [36]): inactive | Activity (Mus musculus [37]): inactive | Activity (Mus musculus [38]): inactive | Retention_time [39]: 16.16 min | Activity (Mus musculus [40]): inactive | Activity (Mus musculus [41]): inactive | Activity (Mus musculus [42]): inactive | Activity (Mus musculus [43]): inactive | Activity [44]: <5% | Activity (Mus musculus [45]): inactive

H-VQRWLIVWRIWK-OH
Activity (HBEC3-KT [8]): 50% | Retention_time [39]: 18.47 min

H-VQRWLIVWVIRK-OH
Activity (HBEC3-KT [8]): 50% | Retention_time [39]: 18.05 min

H-VRRWLIVWRIRK-OH
fold change (FC) (HBEC3-KT [1]): 6 | Activity (HBEC3-KT [8]): <=15% | fold change (FC) (HBEC3-KT [9]): 2.6 | Activity (HBEC3-KT [27]): inactive | fold change (FC) (HBEC3-KT [28]): 2.9 | Activity (HBEC3-KT [35]): 70% | Retention_time [39]: 16.06 min

Source: ChEMBL document CHEMBL5046216, “Disrupting Tryptophan in the Central Hydrophobic Region Selectively Mitigates Immunomodulatory Activities of the Innate Defence Regulator Peptide IDR-1002” (J Med Chem, 2021)
